Patent US20090143279A1 (priority 2007, published 2009)
Where two headings read alike, the source gives them in different places.

What was measured:
reactive oxygen species = format: cell-based, mouse; details: for ROS (composite Z-score): normalized score vs mock-treated (DMSO) wells
C2C12 myotubes = details: for Viability (composite Z-score): normalized score vs mock-treated (DMSO) wells
[1] = tested on: mitochondrial membrane potential; format: cell-based, mouse; details: for ΔΨm (composite Z-score): normalized score vs mock-treated (DMSO) wells
mtOXPHOS transcripts = format: cell-based, mouse; details: Conc 20 μM; for mitoOX (composite Z-score): normalized score vs mock-treated (DMSO) wells
OXPHOS gene expression = format: cell-based, mouse; details: for GE-HTS / GE-HTS (composite Z-score): Conc 20 μM; for GE-HTS (composite Z-score): normalized score vs mock-treated (DMSO) wells
[2] = tested on: cellular dehydrogenase activity; details: for MTT (composite Z-score): normalized score vs mock-treated (DMSO) wells
cytochrome c = format: cell-based, mouse; details: for cyt c (composite Z-score): normalized score vs mock-treated (DMSO) wells
cytochrome c, sequence (P62897 whole entry): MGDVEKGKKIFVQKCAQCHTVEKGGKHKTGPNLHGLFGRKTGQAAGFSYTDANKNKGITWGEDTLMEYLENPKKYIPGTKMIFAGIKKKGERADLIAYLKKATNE

nuOXPHOS transcripts = format: cell-based, mouse; details: Conc 20 μM; for nucOX (composite Z-score): normalized score vs mock-treated (DMSO) wells
[3] = composite Z-score vs DMSO, Conc 20 μM
[4] = composite Z-score vs DMSO wells, Conc 20 μM
[5] = composite Z-score vs DMSO wells
[6] = Table 4, C2C12 myotubes, 48 h, composite Z-score
[7] = normalized composite Z-score vs mock-treated (DMSO) wells, Conc 20 μM
[8] = normalized composite Z-score vs mock-treated (DMSO) wells
[9] = Table 5, C2C12 myotubes, 48 h, composite Z-score

Compound: C[C@]12CC[C@H](O)C[C@@H]1CC[C@@H]1[C@@H]2CC[C@]2(C)[C@@H](O)CC[C@@H]12 [5alpha-androstan-3beta,17beta-diol]
- ROS (reactive oxygen species; [3]): 0.607
- Viability (C2C12 myotubes; [3]): −0.204
- ΔΨm [1, 3]: −1.116
- mitoOX (mtOXPHOS transcripts; composite Z-score vs DMSO): 0.270
- GE-HTS (OXPHOS gene expression; composite Z-score vs DMSO): 0.123
- MTT [2, 3]: −0.454
- cyt c (cytochrome c; [3]): 0.280
- nucOX (nuOXPHOS transcripts; composite Z-score vs DMSO): 0.059

Compound: C[C@@H]1CC[C@H]2[C@@H](C)C(=O)O[C@@H]3O[C@@]4(C)CC[C@@H]1[C@]32OO4 [artemisinin]
- ROS (reactive oxygen species; [4]): 0.123
- Viability (C2C12 myotubes; [4]): 0.336
- ΔΨm [1, 4]: −0.832
- mitoOX (mtOXPHOS transcripts; [5]): 0.903
- GE-HTS (OXPHOS gene expression; [5]): 0.704
- MTT [2, 4]: 0.616
- cyt c (cytochrome c): 0.522
- cyt c (cytochrome c; [4]): 1.104
- nucOX (nuOXPHOS transcripts; [5]): 0.537

Compound: CCC(C)C(OC(C)=O)C(=O)O[C@H]1[C@H](O)[C@@H]2[C@@]3(C)C=CC(=O)C(C)(C)[C@@H]3C[C@@H](OC(=O)C(O)C(C)C)[C@@]2(C)[C@@]23O[C@@H]2C[C@@H](c2ccoc2)[C@]13C (stereo partly shown) [heudelottin C, reference compound]
- ROS (composite Z-score) (reactive oxygen species; Conc 20 μM): 0.576
- ROS (reactive oxygen species; [6]): 0.576
- Viability (composite Z-score) (C2C12 myotubes; Conc 20 μM): −0.829
- Viability (C2C12 myotubes; [6]): −0.829
- ΔΨm (composite Z-score) ([1]; Conc 20 μM): 0.373
- ΔΨm ([1]; Table 4, C2C12 myotubes, 48 h, JC-1, composite Z-score): 0.373
- mitoOX (composite Z-score) (mtOXPHOS transcripts): −1.006
- GE-HTS (composite Z-score) (OXPHOS gene expression): −0.524
- MTT (composite Z-score) ([2]; Conc 20 μM): −0.393
- MTT [2, 6]: −0.393
- cyt c (composite Z-score) (cytochrome c; Conc 20 μM): 0.156
- nucOX (composite Z-score) (nuOXPHOS transcripts): −0.245

Compound: CN1CCc2cc3c(cc2[C@H]1[C@@H]1OC(=O)c2c1ccc1c2OCO1)OCO3 [(+)-bicuculline]
- ROS (reactive oxygen species): 0.256
- ROS (reactive oxygen species; [3]): 0.428
- Viability (C2C12 myotubes): −0.190
- Viability (C2C12 myotubes; [3]): −0.572
- ΔΨm [1]: −0.852
- ΔΨm [1, 3]: −0.945
- mitoOX (mtOXPHOS transcripts; composite Z-score vs DMSO): −0.495
- GE-HTS (OXPHOS gene expression; composite Z-score vs DMSO): −0.189
- MTT [2]: −1.330
- MTT [2, 3]: −0.812
- cyt c (cytochrome c): 0.300
- cyt c (cytochrome c; [3]): −0.116
- nucOX (nuOXPHOS transcripts; composite Z-score vs DMSO): −0.028

Compound: CC(C)C1COc2cc3oc(=O)ccc3cc2O1 (stereo not shown) [dihydro-obliquin]
- ROS (reactive oxygen species; [7]): 1.045
- Viability (C2C12 myotubes; [7]): −0.141
- ΔΨm [1, 7]: −0.159
- mitoOX (mtOXPHOS transcripts; [8]): 0.303
- GE-HTS (OXPHOS gene expression; [8]): 0.233
- MTT [2, 7]: −0.661
- cyt c (cytochrome c; [7]): −0.662
- nucOX (nuOXPHOS transcripts; [8]): 0.192

Compound: CC(=O)O[C@H](CC(=O)[O-])C[N+](C)(C)C [acetylcarnitine]
- ROS (reactive oxygen species; [4]): 0.476
- Viability (C2C12 myotubes; [4]): −0.980
- ΔΨm [1, 4]: −0.930
- mitoOX (mtOXPHOS transcripts; [5]): −0.943
- GE-HTS (OXPHOS gene expression; [5]): −1.051
- MTT [2, 4]: −1.275
- cyt c (cytochrome c; [4]): −0.192
- nucOX (nuOXPHOS transcripts; [5]): −1.015

Compound: 3-nor-3-oxopanasinsan-6-ol
- ROS (reactive oxygen species; [7]): 0.172
- Viability (C2C12 myotubes; [7]): 0.209
- ΔΨm [1, 7]: −0.006
- mitoOX (mtOXPHOS transcripts; [8]): 0.004
- GE-HTS (OXPHOS gene expression; [8]): −0.605
- MTT [2, 7]: −0.492
- cyt c (cytochrome c; [7]): 0.864
- nucOX (nuOXPHOS transcripts; [8]): −0.831

Compound: N=c1ccn2c(n1)O[C@H]1[C@H](O)[C@@H](CO)O[C@H]12 [ancitabine]
- ROS (composite Z-score) (reactive oxygen species; Conc 20 μM): −0.189
- Viability (composite Z-score) (C2C12 myotubes; Conc 20 μM): −0.655
- ΔΨm (composite Z-score) ([1]; Conc 20 μM): −0.986
- mitoOX (composite Z-score) (mtOXPHOS transcripts): −0.726
- GE-HTS (composite Z-score) (OXPHOS gene expression): −1.115
- MTT (composite Z-score) ([2]; Conc 20 μM): −2.731
- cyt c (composite Z-score) (cytochrome c; Conc 20 μM): −0.158
- nucOX (composite Z-score) (nuOXPHOS transcripts): −1.182

Compound: CO/N=C(\C(=O)N[C@@H]1C(=O)N2C(C(=O)O)=C(COC(C)=O)CS[C@H]12)c1csc(N)n1 [cefotaxime]
- ROS (reactive oxygen species; [3]): 1.000
- Viability (C2C12 myotubes; [3]): −1.283
- ΔΨm [1, 3]: −0.276
- mitoOX (mtOXPHOS transcripts; composite Z-score vs DMSO): −0.214
- GE-HTS (OXPHOS gene expression; composite Z-score vs DMSO): −0.379
- MTT [2, 3]: −2.276
- cyt c (cytochrome c; [3]): 0.366
- nucOX (nuOXPHOS transcripts; composite Z-score vs DMSO): −0.450

Compound: COc1cc([C@@H]2c3cc4c(cc3[C@H](O)[C@H]3COC(=O)[C@@H]23)OCO4)cc(OC)c1OC [picropodophyllotoxin, reference compound]
- ROS Zscore (reactive oxygen species; [9]): −1.202
- ROS (reactive oxygen species; [3]): −1.202
- Viability (C2C12 myotubes; [3]): −0.107
- ΔΨm [1, 3]: −0.349
- mitoOX (mtOXPHOS transcripts; composite Z-score vs DMSO): 1.129
- GEHTS_Zscore (OXPHOS gene expression; [9]): 2.259
- GE-HTS (OXPHOS gene expression; composite Z-score vs DMSO): 1.512
- MTT [2, 3]: −2.402
- cyt c (cytochrome c; [3]): −1.445
- nucOX (nuOXPHOS transcripts; composite Z-score vs DMSO): 1.581

Compound: COc1cc(O)ccc1C(C)=O [isopeonol]
- ROS (reactive oxygen species; [3]): −0.219
- Viability (C2C12 myotubes; [3]): −1.180
- ΔΨm [1, 3]: 0.271
- mitoOX (mtOXPHOS transcripts; composite Z-score vs DMSO): −0.635
- GE-HTS (OXPHOS gene expression; composite Z-score vs DMSO): −0.109
- MTT [2, 3]: −0.831
- cyt c (cytochrome c; [3]): 0.734
- nucOX (nuOXPHOS transcripts; composite Z-score vs DMSO): 0.134
